According to article PMC6680510, “Benzotriazine Di-Oxide Prodrugs for Exploiting Hypoxia and Low Extracellular pH in Tumors” (Molecules, 2019):
Values joined by “and” are separate entries in the source; they are usually repeats but may differ in a detail not shown here. Equal values may be shown once. Read-outs that look alike come from different tables or passages of the source.

Tests used:
[1] = system: SiHa cells; assay: IC50 assay (inhibition of proliferation, 4 h exposure, SRB)
Method: Cells were seeded in 96-well plates (SiHa or FaDu 1500 cells/well, UT-SCC-74B 800 cells/well) in 100 μL. After incubation for 2 h, the drugs were added in 50 μL of the same titrated medium at 3× the final concentration to duplicate the wells. After a further 4 h the plates were checked for drug precipitation using a phase contrast microscope, then drugs were removed by aspirating and washing with the standard (pH 7.4) medium, then aspirating again and adding 150 μL of the medium. Cultures were then grown for 5 days before staining with sulphorhodamine B and measuring absorbance, with the estimation of IC50 values using 4-parameter logistic regression, as previously carried out.
The medium and plasticware was equilibrated in the chamber for 3 days prior to use. In the anoxia experiments, FaDu cells were plated in poly-L-lysine coated plates (Corning Cat # 356461) to improve attachment.
Cells were subsequently grown under standard cell culture conditions (oxia, pHe 7.4) for 5 days before staining with sulforhodamine B (SRB). […] (B) SN30000 (2). (C) BTO acid 4a. Values are means and errors are ranges for duplicate cultures in a single experiment. Fitted curves are 4-parameter logistic regressions. PCR = pH cytotoxicity ratio. ACR = anoxia cytotoxicity ratio. TMR = tumor microenvironment ratio.

[2] = One-electron reduction potentials by pulse radiolysis; format: physicochemical; settings: pH 7.0, equilibrium with redox indicator shown in square brackets
Method: One-electron reduction potentials (E^0′) were determined from the redox equilibria with methylviologen, MV^2+, (E^0′ = […], [34]), dimethyldiquat, V21^2+, (E^0′ = […], [35]), or triquat, TQ^2+, (E^0′ = −548 ± 7 mV [34]). […] Substituting the 3-alkanoic sidechain with the 3-aminoalkanoic sidechain on the BTO 1,4-dioxide lowers the E^0′, as does the addition of the cyclopentane ring. The combined effect is seen for 10a, where the E^0′ value is −565 mV, which is expected to be too low for significant bioreduction under hypoxia.
Time-resolved optical absorption and kinetic studies were carried out using the University of Auckland’s 4 MeV linear accelerator, which has been previously described. The one-electron reduction potentials of the compounds (A) and couple E^0′(A/A^−), versus normal hydrogen electrode, were determined at pH 7.0 (2.5 mM phosphate) by establishing redox equilibria within 50 μs between three mixtures of one-electron reduced A and the viologen reference compounds, MV^2+, TQ^2+ and V21^2+. The determined equilibrium constants were used to calculate the ΔE values using the Nernst equation, correcting for ionic strength effects, as described in the literature.

[3] = Solubility in AlphaMEM + 5% FBS, pH 7.4; settings: culture medium (AlphaMEM + 5% FBS), pH 7.4, plasma or biological fluid, thermodynamic from solid
[4] = system: FaDu cells; assay: IC50 assay (inhibition of proliferation, 4 h exposure, SRB); format: cell-based
Method: Cells were seeded in 96-well plates (SiHa or FaDu 1500 cells/well, UT-SCC-74B 800 cells/well) in 100 μL. After incubation for 2 h, the drugs were added in 50 μL of the same titrated medium at 3× the final concentration to duplicate the wells. After a further 4 h the plates were checked for drug precipitation using a phase contrast microscope, then drugs were removed by aspirating and washing with the standard (pH 7.4) medium, then aspirating again and adding 150 μL of the medium. Cultures were then grown for 5 days before staining with sulphorhodamine B and measuring absorbance, with the estimation of IC50 values using 4-parameter logistic regression, as previously carried out [85].

[5] = system: reduction of BTOs to their N-1-oxides by SiHa cells; assay: WST-1 inhibition of anoxic reduction of BTOs to N-1-oxides; format: cell-based
Text: One possibility for this is that the BTO acids are reduced to the 1-oxides by an extracellular one-electron reductase. To test this, we evaluated whether the cell-excluded disulfonic acid tetrazolium salt WST-1 could compete with BTO acids for one-electron reduction. WST-1 is a known electron acceptor for one-electron reduction by the plasma membrane electron transport system (PMET) and is widely used as a cell viability assay, although the latter application uses 1-methoxyphenazine methylsulphate (mPMS) as an electron transfer intermediate. Given the possibility that mPMS could cross the plasma membrane itself, we used WST-1 without mPMS to ensure that the electron donor is a cell surface reductase.
The log-phase cells were trypsinized and the pellets were transferred to the anaerobic chamber and resuspended in equilibrated αMEM + 5% FBS at pH 7.4 and plated (10^5 cells in 100 μL/well for experiments with WST1, otherwise 2 × 10^5 cells/well). After incubation at 37 °C for 2 h, 20 μL was replaced with the anoxic medium containing 5× the final concentrations of test compounds with or without WST-1 (1 mM, Toronto Research Chemicals). A cell-free medium used as a control to check for reduction in the anoxic medium. Cultures were mixed gently, incubated for a further 2 h, then the extracellular medium was removed and 200 μL of ice-cold MeOH was added to the monolayers. The MeOH extract was transferred to the medium sample (thus combining the intracellular and extracellular samples). The pooled samples (combining the intracellular and extracellular samples) were removed from anoxic chamber, then centrifuged (13000g, 30 s) and frozen for subsequent HPLC analysis. Cell-free wells were used for single-point calibration of the parent compounds and 1-oxides in each experiment.
Figure 8 Inhibition of reduction of BTOs to their N-1-oxides by the cell-excluded electron acceptor WST-1. SiHa cells were seeded in 96-well plates at 10^6 cells/mL and exposed to the compounds (50 μM) with the indicated concentrations of WST-1 under anoxia for 2 h. Total (pooled intracellular and extracellular) amounts of the 1-oxide metabolites were determined by HPLC. Values are mean and SEM for two experiments with triplicate cultures at each concentration.

For `O=C(O)CNc1n[n+]([O-])c2ccccc2[n+]1[O-]` [Compound 8a, 3-((Carboxymethyl)amino)benzo[e][1,2,4]triazine 1,4-dioxide], the IC50 ([1]; Homo sapiens, SiHa, 4 h, read-out: Anoxic IC50, SiHa, pHe 6.5, 4 h, anoxic) was 135 ± 18 µM, the IC50 ([1]; Homo sapiens, SiHa, 4 h, read-out: Anoxic IC50, SiHa, pHe 7.4, 4 h, anoxic) was 154 ± 26 µM and the IC50 ([1]; Homo sapiens, SiHa, 4 h, read-out: Oxic IC50, SiHa, pHe 6.5, 4 h, oxic) was > 2000 µM. For the same compound, the IC50 ([1]; Homo sapiens, SiHa, 4 h, read-out: Oxic IC50, SiHa, pHe 7.4, 4 h, oxic) was > 2000 µM, the “TMR (overall TME ratio = oxic IC50 pHe 7.4/anoxic IC50 pHe 6.5)” value ([1]; SiHa) was >15 and the “PCR Anoxic (IC50 at pHe 7.4/IC50 at pHe 6.5)” value (“PCR Anoxic” below) ([1]; SiHa, anoxic) was 1.14 ± 0.25. The “ACR (anoxic cytotoxicity ratio = oxic IC50/anoxic IC50)” value ([1]; SiHa, pHe 6.5) was >15, the “ACR (anoxic cytotoxicity ratio = oxic IC50/anoxic IC50)” value ([1]; SiHa, pHe 7.4) was >13 and the “E^0′ one-electron reduction potential” value [2] was −470 ± 9 [MV^2+] mV. The solubility [3] was 8.7 mM, the “TMR (oxic IC50 pHe 7.4/anoxic IC50 pHe 6.5)” value [4] was >6.9 and the IC50 ([4]; Homo sapiens, 4 h, pHe 6.5, 4 h, anoxic, read-out: Anoxic IC50) was 290 ± 48 µM. For the same compound, the IC50 ([4]; Homo sapiens, 4 h, pHe 6.5, 4 h, oxic, read-out: Oxic IC50) was 1450 ± 268 µM, the IC50 ([4]; Homo sapiens, 4 h, pHe 7.4, 4 h, anoxic, read-out: Anoxic IC50) was 289 ± 25 µM and the IC50 ([4]; Homo sapiens, 4 h, pHe 7.4, 4 h, oxic, read-out: Oxic IC50) was > 2000 µM. For the same compound, the “PCR Anoxic” value ([4]; anoxic) was 1.0 ± 0.19, the “PCR oxic (IC50 at pHe 7.4/IC50 at pHe 6.5)” value ([4]; oxic) was >1 and the “ACR (oxic IC50/anoxic IC50)” value ([4]; pHe 6.5) was 4.99 ± 1.24. The “ACR (oxic IC50/anoxic IC50)” value ([4]; pHe 7.4) was >6.9.
In the case of `O=C(O)CCCNc1n[n+]([O-])c2ccccc2[n+]1[O-]` [Compound 10a, 3-((3-Carboxypropyl)amino)benzo[e][1,2,4]triazine 1,4-Dioxide], the “ACR (anoxic cytotoxicity ratio = oxic IC50/anoxic IC50)” value [1] is reported as >4.8, the “TMR (overall TME ratio = oxic IC50 pHe 7.4/anoxic IC50 pHe 6.5)” value ([1]; SiHa) is reported as >4.8 and the “PCR Anoxic” value ([1]; SiHa, anoxic) is reported as >4.8. For the same compound, the IC50 ([1]; read-out: Anoxic IC50, SiHa, pHe 6.5, 4 h, anoxic) was 416 ± 57 µM, the IC50 ([1]; read-out: Anoxic IC50, SiHa, pHe 7.4, 4 h, anoxic) was > 2000 µM and the IC50 ([1]; read-out: Oxic IC50, SiHa, pHe 6.5, 4 h, oxic) was > 2000 µM. For the same compound, the IC50 ([1]; read-out: Oxic IC50, SiHa, pHe 7.4, 4 h, oxic) was > 2000 µM, the “E^0′ one-electron reduction potential” value [2] was −565 mV and −565 ± 8 [TQ^2+] mV and the “TMR (oxic IC50 pHe 7.4/anoxic IC50 pHe 6.5)” value [4] was >4. For the same compound, the “PCR Anoxic” value ([4]; anoxic) was 1.58 ± 0.37, the “ACR (oxic IC50/anoxic IC50)” value ([4]; pHe 6.5) was >4 and the IC50 ([4]; pHe 6.5, 4 h, anoxic, read-out: Anoxic IC50) was 543 ± 126 µM. For the same compound, the IC50 ([4]; pHe 6.5, 4 h, oxic, read-out: Oxic IC50) was > 2000 µM, the “ACR (oxic IC50/anoxic IC50)” value ([4]; pHe 7.4) was >3 and the IC50 ([4]; pHe 7.4, 4 h, anoxic, read-out: Anoxic IC50) was 856 ± 22 µM. For the same compound, the IC50 ([4]; pHe 7.4, 4 h, oxic, read-out: Oxic IC50) was > 2000 µM.
With `O=[N+]([O-])c1ccc(-[n+]2nc(-c3ccc(S(=O)(=O)O)cc3S(=O)(=O)[O-])nn2-c2ccc(I)cc2)cc1` [WST-1] the IC50 ([5]; read-out: IC50 for inhibition of anoxic reduction of 4a to N-1-oxide 15a, substrate 4a 50 μM, anoxia 2 h) was 7.05 µM, the IC50 ([5]; read-out: IC50 for inhibition of anoxic reduction of 7a to N-1-oxide 15d, substrate 7a 50 μM, anoxia 2 h) was 14.3 µM and the IC50 ([5]; substrate SN30000 50 μM, anoxia 2 h, read-out: IC50 for inhibition of metabolic reduction of SN30000) was > 1000 µM. For the same compound, the IC50 ([5]; substrate TPZ 50 μM, anoxia 2 h, read-out: IC50 for inhibition of metabolic reduction of TPZ) was > 1000 µM.
